For one assay, the target named is T1, human-Arginase-1 (Homo sapiens, UniProt P05089).
T1 construct: expressed in transfected cells; host or cells: CHOK cells
T1 sequence (P05089 1-322): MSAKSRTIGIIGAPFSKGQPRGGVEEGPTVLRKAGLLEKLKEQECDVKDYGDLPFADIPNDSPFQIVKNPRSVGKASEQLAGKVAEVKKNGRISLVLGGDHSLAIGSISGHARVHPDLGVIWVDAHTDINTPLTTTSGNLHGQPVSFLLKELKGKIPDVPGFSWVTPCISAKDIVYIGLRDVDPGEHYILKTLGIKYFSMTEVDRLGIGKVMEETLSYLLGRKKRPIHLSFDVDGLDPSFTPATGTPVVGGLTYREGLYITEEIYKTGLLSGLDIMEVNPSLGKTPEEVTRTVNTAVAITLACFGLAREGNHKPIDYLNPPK
Description: Urea production in CHOK cells stably transfected with human-Arginase-1. Particulars: IC50 class, 5 mM arginine, 24 hours, read-out: CHOK Cell. It counts as cell-based. The procedure: Table 3 also provides CHOK cell based IC50 values for illustrative arginase inhibitors. IC50 values were determined by measuring the production of urea in CHOK cells stably transfected with human-Arginase-1.
Briefly, CHOK cells were stably transfected with human-arginase-1. To determiner the IC50 values for compounds in accordance with the present invention, parental CHOK cells and arginase-1 stably transfected cells were plated in a 96 well plate. Cells were plated using 200 μl of complete growth medium and incubated overnight at 37° C.
Media from each of the wells containing cells was first removed and growth media supplemented with arginine at a concentration of 5 mM was added to each well. The test compounds were dissolved in PBS buffer to the desired concentration and added to appropriate wells. The plate was then incubated at 37° C. for 24 hours. After 24 hours the plates were spun down at 3000 RPM for 5 min and 50 μl of the media were transferred to a new plate.
An aqueous solution of o-phthaldehyde, Brij, sulfuric acid, primaquine diphosphate and boric acid was added to each well and the plate was incubated for 10-15 minutes. The urea concentration in each well was determined by measuring the optical density at 520-530 nanometers using a standard curve. The IC50 values were calculated by measuring urea production at various concentrations of the inventive arginase inhibitors after subtracting the value related to the concentration of urea in control wells.

The target in the next assay is T2, human arginase I (ARG I) (Homo sapiens, UniProt P05089).
T2 sequence (P05089 1-322): T1 sequence (P05089 1-322)
Description: Inhibition of arginase I, spectrophotometric urea assay at 530 nm.

The target of another assay is T3, arginase II (ARG II) (Homo sapiens, UniProt P78540).
T3 sequence (P78540 23-354): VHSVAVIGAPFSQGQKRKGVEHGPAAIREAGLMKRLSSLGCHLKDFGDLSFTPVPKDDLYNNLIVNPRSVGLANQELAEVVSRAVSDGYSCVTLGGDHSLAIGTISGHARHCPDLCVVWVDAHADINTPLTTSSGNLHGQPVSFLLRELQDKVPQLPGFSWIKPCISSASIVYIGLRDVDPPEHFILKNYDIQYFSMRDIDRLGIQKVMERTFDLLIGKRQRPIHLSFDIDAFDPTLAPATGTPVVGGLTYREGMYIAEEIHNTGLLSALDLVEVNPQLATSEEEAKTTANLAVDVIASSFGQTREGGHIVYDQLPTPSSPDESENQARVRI
Description: Inhibition of arginase II, spectrophotometric urea assay at 530 nm.

Structures are written as SMILES.

Description for arginase II (ARG II): (§1) Inhibition of arginase I (ARG I) and arginase II (ARG II) by the inventive compounds is followed spectrophotometrically at 530 nm. […] Solutions of arginase I and II are prepared in 100 mM sodium phosphate buffer, pH 7.4 containing 1 mg/ml of OVA to give an arginase stock solution at a final concentration of 100 ng/ml.
(§2) To each well of a 96-well microtiter plate is add 40 μl of enzyme, 10 μl of an inventive compound and 10 μl of enzyme substrate (L-arginine+ manganese sulfate). For wells that are used as positive controls, only the enzyme and its substrate are added, while wells used as negative controls contain only manganese sulfate.
(§3) After incubating the microtiter plate at 37° C. for 60 minutes, 150 μl of a urea reagent obtained by combining equal proportions (1:1) of reagents A and B is added to each well of the microtiter plate to stop the reaction. The urea reagent is made just before use by combining Reagent A (10 mM o-phthaldialdehyde, and 0.4% polyoxyethylene (23) lauryl ether (w/v) in 1.8 M sulfuric acid) with Reagent B (1.3 mM primaquine diphosphate, 0.4% polyoxyethylene (23) lauryl ether (w/v), 130 mM boric acid in 3.6 M sulfuric acid). After quenching the reaction mixture, the microtiter plate is allowed to stand for an additional 10 minutes at room temperature to allow color development. […] The normalized OD is then used to generate a dose-response curve by plotting the normalized OD values against log [concentration] and using regression analysis to compute the IC50 values.
Description for human arginase I (ARG I): as §1, §2, §3

`CNC(CCCCB(O)O)(CCN1CCC(C)CC1)C(=O)O` (stereo not drawn) [Example 33, 6-borono-2-(methylamino)-2-(2-(4-methylpiperidin-1-yl)ethyl)hexanoic acid]: the IC50 at human-Arginase-1 fell in the range of 26 to 100 µM; against human arginase I (ARG I), 101 to 500 nM; against arginase II (ARG II), 101 to 500 nM.
With `CNC(CCCCB(O)O)(CCNCc1ccc(Cl)c(Cl)c1)C(=O)O` (stereo not drawn) [Example 35, 6-borono-2-(2-(3,4-dichlorobenzylamino)ethyl)-2-(methylamino)hexanoic acid], the values for the IC50 at human-Arginase-1, on human arginase I (ARG I) and at arginase II (ARG II) were 26 to 100 µM, 101 to 500 nM and 101 to 500 nM, respectively.
`CNC(CCCCB(O)O)(CCN1CCC(c2ccccc2)CC1)C(=O)O` (stereo not drawn) [Example 36, 6-borono-2-(methylamino)-2-(2-(4-phenylpiperidin-1-yl)ethyl)hexanoic acid]: the figures for the IC50 at human-Arginase-1, at human arginase I (ARG I) and against arginase II (ARG II) were 1 to 25 µM, 101 to 500 nM and 101 to 500 nM, respectively.
In the case of `NC(CCCCB(O)O)(CCCN1Cc2ccccc2C1)C(=O)O` (stereo not drawn) [Example 39, 2-amino-6-borono-2-(3-(isoindolin-2-yl)propyl)hexanoic acid], the IC50 at human-Arginase-1 was in the range of 1 to 25 µM; against human arginase I (ARG I) it was 26 to 100 nM; on arginase II (ARG II), 101 to 500 nM.
On the same counts, the results for `NC(CCCCB(O)O)(CCCN1CCc2c(Cl)cccc2C1)C(=O)O` (stereo not drawn) [Example 40, 2-amino-6-borono-2-(3-(5-chloro-3,4-dihydroisoquinolin-2(1H)-yl)propyl)hexanoic acid] are 1 to 25 µM, 26 to 100 nM and 101 to 500 nM.
For `NC(CCCCB(O)O)(CCCN1CCc2ccccc2C1)C(=O)O` (stereo not drawn) [Example 41, 2-amino-6-borono-2-(3-(3,4-dihydroisoquinolin-2(1H)-yl)propyl)hexanoic acid], in that order: 1 to 25 µM, 101 to 500 nM and 101 to 500 nM.
On the same counts, the results for `NC(CCCCB(O)O)(C(=O)O)[C@H]1CC[C@@H](NCc2ccc(-c3ccccc3)cc2)C1` (stereo partly drawn) [Example 44] are 26 to 100 µM, 26 to 100 nM and 26 to 100 nM.
As to `NC(CCCCB(O)O)(C(=O)O)C1CC2CCC(C1)N2Cc1ccc(Cl)cc1` [Example 45, 2-amino-6-borono-2-{(1R,5S)-8-(4-chlorobenzyl)-8-aza-bicycli[3.2.1]-octan-3-yl}-hexanoic acid], the IC50 at human-Arginase-1 lay within 1 to 25 µM; against human arginase I (ARG I) it was 0.1 to 25 nM; on arginase II (ARG II) it was 26 to 100 nM.
On to `NC(CCCCB(O)O)(C(=O)O)C1CC2CCC(C1)N2Cc1ccc(Cl)c(Cl)c1` [Example 46, 2-Amino-6-borono-2-{(1R,5S)-8-(3,4-dichlorobenzyl)-8-aza-bicycli[3.2.1]-octan-3-yl}-hexanoic acid], for which the results for the IC50 at human-Arginase-1, against human arginase I (ARG I) and against arginase II (ARG II) were 1 to 25 µM, 0.1 to 25 nM and 0.1 to 25 nM, respectively.
Regarding `NC(CCCCB(O)O)(C(=O)O)[C@H]1C[C@@H](NCc2ccc(-c3ccc(Cl)cc3)cc2F)C1` (stereo partly drawn) [Example 49, (S)-2-amino-6-borono-2-((1s,3R)-3-((4′-chloro-3-fluorobiphenyl-4-yl)methylamino)cyclobutyl)hexanoic acid], the IC50 was 1 to 25 µM at human-Arginase-1, 0.1 to 25 nM against human arginase I (ARG I) and 0.1 to 25 nM at arginase II (ARG II).
`NC(CCCCB(O)O)(C(=O)O)[C@H]1C[C@@H](NCCCc2ccc(C(F)(F)F)cc2)C1` (stereo partly drawn) [Example 56, (S)-2-amino-6-borono-2-((1s,3R)-3-(3-(4-(trifluoromethyl)phenyl)propylamino)cyclobutyl)hexanoic acid]: the values for the IC50 on human-Arginase-1, on human arginase I (ARG I) and at arginase II (ARG II) were 26 to 100 µM, 0.1 to 25 nM and 26 to 100 nM, respectively.
On the same counts, the results for `NC(CCCCB(O)O)(C(=O)O)C1CC2CCC(C1)N2` (stereo not drawn) [Example 61, 2-amino-2-(8-azabicyclo[3.2.1]octan-3-yl)-6-boronohexanoic acid] are 1 to 25 µM, 26 to 100 nM and 26 to 100 nM.
On to `NC(CCCCB(O)O)(C(=O)O)C1CC2CCC(C1)N2Cc1ccccc1` (stereo not drawn) [Example 62, 2-amino-2-(8-benzyl-8-azabicyclo[3.2.1]octan-3-yl)-6-boronohexanoic acid], for which the IC50 at human-Arginase-1 lay in the range of 1 to 25 µM; against human arginase I (ARG I) it was 0.1 to 25 nM; against arginase II (ARG II), 26 to 100 nM.

(Values after US9266908B2, “Inhibitors of arginase and their therapeutic applications” (MARS, INCORPORATED, priority 2011, dated 2016).)
